Experimental data reported in patent publication US12583851B2, “Heteroaryl-substituted pyrazine derivatives as pesticides” (Elanco Animal Health GmbH, priority 2019, dated 2026).

Experiments:
Type in all cases: in vivo
[1] = tested on: Rhipicephalus (Boophilus) microplus larvae (strain Parkhurst, resistant against synthetic pyrethroids); experiment: Rhipicephalus (Boophilus) microplus in-vitro contact test, larval cattle tick; details: after 48 hours, read-out: efficacy (larvae dead or moribund); for pest or weed control at 1 µg/cm2, 100 g/ha: 1 μg/cm^2 (=100 g/ha); for pest or weed control at 5 µg/cm2, 500 g/ha: 5 μg/cm^2 (=500 g/ha)
Method: Rhipicephalus (Boophilus) microplus—In-Vitro Contact Tests Larval Cattle Tick (Strain Parkhurst, Resistant Against Synthetic Pyrethroids)
9 mg compound is solved in 1 mL acetone and diluted with acetone to the desired concentration. […] the test solution is filled in 25 mL glass test tubes and homogeneously distributed on the inner walls by rotation and tilting on a shaking device (2 h at 30 rpm). With a compound concentration of 900 ppm, an inner surface of 44.7 cm^2 and a homogeneous distribution, a dose of 5 μg/cm^2 is achieved.
After the solvent has evaporated, each test tube is filled with 20-50 cattle tick larvae (Rhipicephalus microplus), closed with a perforated lid and incubated in a horizontal position at 85% relative humidity and 27° C. in an incubator. After 48 hours efficacy is determined. The larvae are patted on the ground of the tubes and negative geotactic behaviour is recorded.
An efficacy of 100% means all larvae are dead or moribund; 0% means no larvae are dead or moribund.

[2] = tested on: larvae of the banded cucumber beetle (Diabrotica balteata); experiment: Diabrotica balteata spray test; details: 168 h, after 7 days, read-out: efficacy (seedling growth); for pest or weed control at 32 µg/disc, 100 g/ha: 100 g/ha (=32 μg/well); for pest or weed control at 6.4 µg/disc, 20 g/ha: 20 g/ha (=6.4 μg/well)
Method: Diabrotica balteata—Spray Test
Solvent: 78.0 parts by weight of acetone • • 1.5 parts by weight of dimethylformamide
(§1) Emulsifier: alkylarylpolyglycol ether
(§2) To produce a suitable preparation of active compound, 1 part by weight of active compound is mixed with the stated amount of solvent, and the concentrate is diluted with water, containing an emulsifier concentration of 1000 ppm, to the desired concentration. Further test concentrations are prepared by dilution with emulsifier containing water.
Soaked wheat seeds (Triticum aestivum) are placed in a multiple well plate filled with agar and some water and are incubated for 1 day to germinate (5 seeds per well). The germinated wheat seeds are sprayed with a test solution containing the desired concentration of the active ingredient. Afterwards each unit is infected with 10-20 larvae of the banded cucumber beetle (Diabrotica balteata).
After 7 days efficacy in % is determined. 100% means all the seedlings have grown up like in the untreated, uninfected control; 0% means none of the seedlings have grown.

[3] = tested on: fall armyworm larvae (Spodoptera frugiperda); experiment: Spodoptera frugiperda spray test; details: 168 h, maize leaf sections, after 7 days
Method: Spodoptera fruaiperda—Spray Test
Solvent: 78.0 parts by weight acetone • 1.5 parts by weight dimethylformamide
as §1
as §2, with “solvents” for “solvent,”, “and” for “and the concentrate”
Maize (Zea mays) leaf sections are sprayed with a preparation of the active ingredient of the desired concentration. Once dry, the leaf sections are infested with fall armyworm larvae (Spodoptera frugiperda).
After 7 days mortality in % is determined. 100% means all caterpillars have been killed and 0% means none of the caterpillars have been killed.

**Q.** What does the source list for `CC(NC(=O)c1cc(Br)cc(C(F)(F)F)c1)c1nccnc1-c1ncc(C(=O)N2C[C@@H](C)O[C@@H](C)C2)s1` (mixture of isomers) [Example I-120, (rac)-3-Bromo-N-[1-(3-{5-[(cis)-2,6-dimethylmorpholine-4-carbonyl]-1,3-thiazol-2-yl}pyrazin-2-yl)ethyl]-5-(trifluoromethyl)benzamide]?
**A.** pest or weed control at 1 µg/cm2, 100 g/ha [1]: 100%; pest or weed control at 5 µg/cm2, 500 g/ha [1]: 100%; pest or weed control at 32 µg/disc, 100 g/ha [2]: 100%; mortality at 100 g/ha [3]: 100%

**Q.** Which results are given for `CC(NC(=O)c1cc(Br)cc(OC(F)(F)F)c1)c1nccnc1-c1ncc(C(=O)N(C)CC2CC2)s1` (racemic) [Example I-76, (rac)-2-(3-{1-[3-Bromo-5-(trifluoromethoxy)benzamido]ethyl}pyrazin-2-yl)-N-(cyclopropylmethyl)-N-methyl-1,3-thiazole-5-carboxamide]?
**A.** pest or weed control at 1 µg/cm2, 100 g/ha [1]: 100%; pest or weed control at 5 µg/cm2, 500 g/ha [1]: 100%; pest or weed control at 6.4 µg/disc, 20 g/ha [2]: 100%; pest or weed control at 32 µg/disc, 100 g/ha [2]: 100%; mortality at 100 g/ha [3]: 100%

**Q.** Which results are given for `Cc1cnc(C(C)NC(=O)c2cc(C(F)(F)F)cc(C(F)(F)F)c2)c(-c2ncc(C(=O)N(C)CC#N)s2)n1` (racemic) [Example I-124, (rac)-2-(3-{1-[3,5-Bis(trifluoromethyl)benzamido]ethyl}-6-methylpyrazin-2-yl)-N-(cyanomethyl)-N-methyl-1,3-thiazole-5-carboxamide]?
**A.** pest or weed control at 1 µg/cm2, 100 g/ha [1]: 100%; pest or weed control at 5 µg/cm2, 500 g/ha [1]: 100%; pest or weed control at 6.4 µg/disc, 20 g/ha [2]: 100%; pest or weed control at 32 µg/disc, 100 g/ha [2]: 100%; mortality at 100 g/ha [3]: 100%

**Q.** Which results are given for `CC(NC(=O)c1cc(OC(F)F)cc(OC(F)F)c1)c1nccnc1-c1ncc(C(=O)N(C)CC2CC2)s1` (racemic) [Example I-143, (rac)-2-(3-{1-[3,5-Bis(difluoromethoxy)benzamido]ethyl}pyrazin-2-yl)-N-(cyclopropylmethyl)-N-methyl-1,3-thiazole-5-carboxamide]?
**A.** pest or weed control at 1 µg/cm2, 100 g/ha [1]: 100%; pest or weed control at 5 µg/cm2, 500 g/ha [1]: 90%; pest or weed control at 6.4 µg/disc, 20 g/ha [2]: 100%; pest or weed control at 32 µg/disc, 100 g/ha [2]: 100%; mortality at 100 g/ha [3]: 100%

**Q.** What does the source list for `CC(NC(=O)c1cc(Cl)cc(C(F)(F)F)c1)c1nccnc1-c1ccc(C(F)(F)F)cn1` (racemic) [Example I-46, (rac)-3-Chloro-5-(trifluoromethyl)-N-[1-{3-[5-(trifluoromethyl)pyridin-2-yl]pyrazin-2-yl}ethyl]benzamide]?
**A.** pest or weed control at 1 µg/cm2, 100 g/ha [1]: 100%; pest or weed control at 5 µg/cm2, 500 g/ha [1]: 100%; pest or weed control at 32 µg/disc, 100 g/ha [2]: 100%; mortality at 100 g/ha [3]: 100%

**Q.** Which pest or weed control at 1 µg/cm2, 100 g/ha [1] does the source give for `CC(NC(=O)c1cc(C(F)(F)F)cc(C(F)(F)F)c1)c1nccnc1-n1cc(C(F)(F)F)cn1` (racemic) [Example I-92, (rac)-3,5-Bis(trifluoromethyl)-N-[1-{3-[4-(trifluoromethyl)-1H-pyrazol-1-yl]pyrazin-2-yl}ethyl]benzamide] here?
**A.** 100%

**Q.** And the pest or weed control at 5 µg/cm2, 500 g/ha [1]?
**A.** 100%

**Q.** What about the pest or weed control at 6.4 µg/disc, 20 g/ha [2] of the same compound?
**A.** 100%

**Q.** And the pest or weed control at 32 µg/disc, 100 g/ha [2]?
**A.** 100%

**Q.** And the mortality at 100 g/ha [3]?
**A.** 100%

**Q.** What does the source list for `CC(NC(=O)c1cc(C(F)(F)F)cc(C(F)(F)F)c1)c1nccnc1-c1ncc(C(=O)N(C)CC2CC2)s1` (racemic) [Example I-51, (rac)-2-(3-{1-[3,5-Bis(trifluoromethyl)benzamido]ethyl}pyrazin-2-yl)-N-(cyclopropylmethyl)-N-methyl-1,3-thiazole-5-carboxamide]?
**A.** pest or weed control at 1 µg/cm2, 100 g/ha [1]: 90%; pest or weed control at 5 µg/cm2, 500 g/ha [1]: 90%; pest or weed control at 6.4 µg/disc, 20 g/ha [2]: 100%; pest or weed control at 32 µg/disc, 100 g/ha [2]: 100%; mortality at 100 g/ha [3]: 100%

**Q.** Which results are given for `CC(NC(=O)c1cc(Br)cc(OC(F)(F)F)c1)c1nccnc1-n1cc(C#N)cn1` (racemic) [Example I-102, (rac)-3-Bromo-N-{1-[3-(4-cyano-1H-pyrazol-1-yl)pyrazin-2-yl]ethyl}-5-(trifluoromethoxy)benzamide]?
**A.** pest or weed control at 1 µg/cm2, 100 g/ha [1]: 90%; pest or weed control at 5 µg/cm2, 500 g/ha [1]: 90%; pest or weed control at 6.4 µg/disc, 20 g/ha [2]: 100%; pest or weed control at 32 µg/disc, 100 g/ha [2]: 100%; mortality at 100 g/ha [3]: 100%

**Q.** With `CC(NC(=O)c1cc(C#N)cc(OC(F)(F)F)c1)c1nccnc1-n1cc(C#N)cn1` (racemic) [Example I-116, (rac)-3-Cyano-N-{1-[3-(4-cyano-1H-pyrazol-1-yl)pyrazin-2-yl]ethyl}-5-(trifluoromethoxy)benzamide] as the compound, how does the pest or weed control at 1 µg/cm2, 100 g/ha [1] read?
**A.** 90%

**Q.** What about the pest or weed control at 5 µg/cm2, 500 g/ha [1] of the same compound?
**A.** 100%

**Q.** What about the pest or weed control at 6.4 µg/disc, 20 g/ha [2] of the same compound?
**A.** 100%

**Q.** What about the pest or weed control at 32 µg/disc, 100 g/ha [2] of the same compound?
**A.** 100%

**Q.** And the mortality at 100 g/ha [3]?
**A.** 100%

**Q.** Which pest or weed control at 1 µg/cm2, 100 g/ha [1] does the source give for `CCN(C)C(=O)c1cnn(-c2nccnc2C(C)NC(=O)c2cc(C(F)(F)F)cc(C(F)(F)F)c2)c1` (racemic) [Example I-89, (rac)-1-(3-{1-[3,5-Bis(trifluoromethyl)benzamido]ethyl}pyrazin-2-yl)-N-ethyl-N-methyl-1H-pyrazole-4-carboxamide] here?
**A.** 100%

**Q.** And the pest or weed control at 5 µg/cm2, 500 g/ha [1]?
**A.** 100%

**Q.** What about the pest or weed control at 6.4 µg/disc, 20 g/ha [2] of the same compound?
**A.** 100%

**Q.** What about the pest or weed control at 32 µg/disc, 100 g/ha [2] of the same compound?
**A.** 100%

**Q.** And the mortality at 100 g/ha [3]?
**A.** 100%

**Q.** With `CC(NC(=O)c1cc(C#N)cc(C(F)(F)F)c1)c1nccnc1-n1cc(C#N)cn1` (racemic) [Example I-115, (rac)-3-Cyano-N-{1-[3-(4-cyano-1H-pyrazol-1-yl)pyrazin-2-yl]ethyl}-5-(trifluoromethyl)benzamide] as the compound, how does the pest or weed control at 1 µg/cm2, 100 g/ha [1] read?
**A.** 100%

**Q.** And the pest or weed control at 5 µg/cm2, 500 g/ha [1]?
**A.** 100%

**Q.** And the pest or weed control at 6.4 µg/disc, 20 g/ha [2]?
**A.** 100%

**Q.** And the pest or weed control at 32 µg/disc, 100 g/ha [2]?
**A.** 100%

**Q.** What about the mortality at 100 g/ha [3] of the same compound?
**A.** 100%

**Q.** What does the source list for `CC(NC(=O)c1cc(Br)cc(OC(F)(F)F)c1)c1nccnc1-c1ncc(C(=O)N(C)CC#N)s1` (racemic) [Example I-75, (rac)-2-(3-{1-[3-Bromo-5-(trifluoromethoxy)benzamido]ethyl}pyrazin-2-yl)-N-(cyanomethyl)-N-methyl-1,3-thiazole-5-carboxamide]?
**A.** pest or weed control at 1 µg/cm2, 100 g/ha [1]: 90%; pest or weed control at 5 µg/cm2, 500 g/ha [1]: 90%; pest or weed control at 32 µg/disc, 100 g/ha [2]: 100%; mortality at 100 g/ha [3]: 100%

**Q.** With `CC(NC(=O)c1cc(Cl)cc(S(=O)(=O)C(F)(F)F)c1)c1nccnc1-n1cc(C#N)cn1` (racemic) [Example I-114, (rac)-3-Chloro-N-{1-[3-(4-cyano-1H-pyrazol-1-yl)pyrazin-2-yl]ethyl}-5-(trifluoromethanesulfonyl)benzamide] as the compound, how does the pest or weed control at 1 µg/cm2, 100 g/ha [1] read?
**A.** 90%

**Q.** And the pest or weed control at 5 µg/cm2, 500 g/ha [1]?
**A.** 90%

**Q.** What about the pest or weed control at 32 µg/disc, 100 g/ha [2] of the same compound?
**A.** 100%

**Q.** What about the mortality at 100 g/ha [3] of the same compound?
**A.** 100%

**Q.** With `CC(NC(=O)c1cc(C(F)(F)F)cc(C(F)(F)F)c1)c1nccnc1-n1cc(C(=O)N2CCOCC2)cn1` (racemic) [Example I-90, N-[(rac)-1-{3-[4-(Morpholine-4-carbonyl)-1H-pyrazol-1-yl]pyrazin-2-yl}ethyl]-3,5-bis(trifluoromethyl)benzamide] as the compound, how does the pest or weed control at 1 µg/cm2, 100 g/ha [1] read?
**A.** 100%

**Q.** And the pest or weed control at 5 µg/cm2, 500 g/ha [1]?
**A.** 100%

**Q.** What about the pest or weed control at 32 µg/disc, 100 g/ha [2] of the same compound?
**A.** 100%

**Q.** What about the mortality at 100 g/ha [3] of the same compound?
**A.** 100%

**Q.** What does the source list for `CC(NC(=O)c1cc(C(F)(F)F)cc(C(F)(F)F)c1)c1nccnc1-c1ncc(C(=O)N(C)C)s1` (racemic) [Example I-69, (rac)-2-(3-{1-[3,5-Bis(trifluoromethyl)benzamido]ethyl}pyrazin-2-yl)-N,N-dimethyl-1,3-thiazole-5-carboxamide]?
**A.** pest or weed control at 1 µg/cm2, 100 g/ha [1]: 100%; pest or weed control at 5 µg/cm2, 500 g/ha [1]: 100%; pest or weed control at 6.4 µg/disc, 20 g/ha [2]: 100%; pest or weed control at 32 µg/disc, 100 g/ha [2]: 100%; mortality at 100 g/ha [3]: 100%

**Q.** Which results are given for `CC(NC(=O)c1cc(Br)cc(C(F)(F)F)c1)c1nccnc1-n1cc(C#N)cn1` (racemic) [Example I-113, (rac)-3-Bromo-N-{1-[3-(4-cyano-1H-pyrazol-1-yl)pyrazin-2-yl]ethyl}-5-(trifluoromethyl)benzamide]?
**A.** pest or weed control at 1 µg/cm2, 100 g/ha [1]: 100%; pest or weed control at 5 µg/cm2, 500 g/ha [1]: 100%; pest or weed control at 6.4 µg/disc, 20 g/ha [2]: 100%; pest or weed control at 32 µg/disc, 100 g/ha [2]: 100%; mortality at 100 g/ha [3]: 100%
